Experimental data as given in article PMC3372086 (Journal of Medicinal Chemistry, 2012).
Where a name gives a salt, the structure may show the parent alone.

Legend:
[1] = system: several laboratory strains and primary isolates; conditions: cited from earlier work
TZM-bl cells = assay: Cytotoxicity in TZM-bl cells; type: cell-based; conditions: at the dose given as CC50 bound
MT-2 cells = assay: Cytotoxicity in MT-2 cells; type: cell-based, Human; conditions: for % toxicity at that dose (number in parenthesis), MT-2 cells: at the dose given as CC50 bound

CC1(C)CC(NC(=O)C(=O)Nc2ccc(Cl)cc2)CC(C)(C)N1 [compound 1]
potency against several laboratory strains and primary isolates [1]: low micromolar potency

Cc1nc(C(NC(=O)C(=O)Nc2ccc(F)c(Cl)c2)C2CCCCN2)sc1CO (stereo not drawn) [compound 24, N^1-(3-chloro-4-fluorophenyl)-N^2-((5-(hydroxymethyl)-4-methylthiazol-2-yl)(piperidin-2-yl)methyl)oxalamide.2HCl]
% toxicity at that dose (number in parenthesis), TZM-bl cells (TZM-bl cells): 0%

Cc1nc(C(NC(=O)C(=O)Nc2ccc(Cl)cc2)C2CCCCN2)sc1CCO.O=CO (stereo not drawn) [compound 30, N^1-(4-chlorophenyl)-N^2-((5-(2-hydroxyethyl)-4-methylthiazol-2-yl)(piperidin-2-yl)methyl)oxalamide.HCOOH]
% toxicity at that dose (number in parenthesis), MT-2 cells (MT-2 cells): 0%
CC50 (MT-2 cells; read-out: MT-2 Cells CC50 (μM ± SD), MT-2 cells, XTT, 4 days): > 62 µM

CC1(C)CC(NC(=O)C(=O)Nc2ccc(Br)cc2)CC(C)(C)N1 [compound 2]
potency against several laboratory strains and primary isolates [1]: low micromolar potency

Cc1ccc(NC(=O)C(=O)NC(c2nc(C)c(CO)s2)C2CCCCN2)cc1F (stereo not drawn) [compound 28, N^1-(3-fluoro-4-methylphenyl)-N^2-((5-(hydroxymethyl)-4-methylthiazol-2-yl)(piperidin-2-yl)methyl)oxalamide.HCl]
% toxicity at that dose (number in parenthesis), TZM-bl cells (TZM-bl cells): 0%

Cc1nc(C(NC(=O)C(=O)Nc2ccc(Cl)cc2)C2CCCCN2)sc1CCO (stereo not drawn) [compound 9, N^1-(4-chlorophenyl)-N^2-((5-(2-hydroxyethyl)-4-methylthiazol-2-yl)(piperidin-2-yl)methyl)oxalamide.HCOOH]
% toxicity at that dose (number in parenthesis), MT-2 cells (MT-2 cells): 0%

Cc1nc(C(NC(=O)C(=O)Nc2ccc(F)cc2)C2CCCCN2)sc1CO (stereo not drawn) [compound 25, N^1-(4-fluorophenyl)-N^2-((5-(hydroxymethyl)-4-methylthiazol-2-yl)(piperidin-2-yl)methyl)oxalamide.HCl]
% toxicity at that dose (number in parenthesis), TZM-bl cells (TZM-bl cells): 0%

Cc1nc(C(NC(=O)C(=O)Nc2ccc(F)c(F)c2)C2CCCCN2)sc1CO (stereo not drawn) [compound 22, N^1-(3,4-difluorophenyl)-N^2-((5-(hydroxymethyl)-4-methylthiazol-2-yl)(piperidin-2-yl)methyl)oxalamide.HCl]
% toxicity at that dose (number in parenthesis), TZM-bl cells (TZM-bl cells): 0%
